According to patent US7074789B2, “Kinase inhibitors” (Amgen Inc., priority 1999, dated 2006):

Key:
Type in all cases: biochemical
Hck-1 = target: T1, Hck-1 (Homo sapiens, UniProt P08631); experiment: Kinase inhibition assay (33P transfer), Hck; details: Table 6, Hck-1 kinase inhibition class
T1 construct: Kinases are expressed as either kinase domains or full length constructs; made in house

Itk = target: T2, Itk (Homo sapiens, UniProt Q08881); experiment: Kinase inhibition assay (33P transfer), Itk; details: Table 3; read-out: Itk-1
T2 construct: Kinases are expressed as either kinase domains or full length constructs; made in house
T2 sequence (Q08881 1-620): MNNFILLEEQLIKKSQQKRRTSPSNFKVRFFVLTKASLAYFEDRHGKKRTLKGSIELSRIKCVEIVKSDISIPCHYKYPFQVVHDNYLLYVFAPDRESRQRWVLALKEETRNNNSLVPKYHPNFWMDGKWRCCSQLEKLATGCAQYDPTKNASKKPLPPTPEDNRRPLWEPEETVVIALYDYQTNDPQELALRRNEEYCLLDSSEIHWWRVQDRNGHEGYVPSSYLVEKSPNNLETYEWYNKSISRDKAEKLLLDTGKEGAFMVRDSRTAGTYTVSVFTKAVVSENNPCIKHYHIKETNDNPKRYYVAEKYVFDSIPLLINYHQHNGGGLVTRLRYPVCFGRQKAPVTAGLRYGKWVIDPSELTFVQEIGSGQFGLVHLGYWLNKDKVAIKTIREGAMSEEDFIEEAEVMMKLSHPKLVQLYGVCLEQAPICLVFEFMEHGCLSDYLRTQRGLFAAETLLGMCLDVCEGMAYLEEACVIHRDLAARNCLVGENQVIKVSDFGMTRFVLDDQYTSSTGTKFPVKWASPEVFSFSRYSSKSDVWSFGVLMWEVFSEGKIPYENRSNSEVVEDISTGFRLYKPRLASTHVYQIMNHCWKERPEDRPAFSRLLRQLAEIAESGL
Procedure, shortened: (§1)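 GST/His-fusion kinases, E. coli or High Five expressed, affinity purified; 33P-ATP, plate-coated poly(Glu,Tyr) 4:1 or poly(Arg,Ser) 3:1; 0.5% H3PO4 wash, scintillant, LSC.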

FGFR1 = target: T3, FGFR1 (Homo sapiens, UniProt P11362); experiment: Kinase inhibition assay (33P transfer), FGFR1; details: read-out: FGFR1-1
T3 construct: Kinases are expressed as either kinase domains or full length constructs; made in house

Kdr = target: T4, Kdr (Homo sapiens, UniProt P35968); experiment: Kinase inhibition assay (33P transfer), Kdr; details: Table 3; read-out: KDR-1
T4 construct: Kinases are expressed as either kinase domains or full length constructs; made in house
Procedure, shortened: (§2)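 Liquid scintillation counting of 33P on plate-bound synthetic substrates gives kinase activity. Plates are washed in 0.5% phosphoric acid first; kinases are tagged recombinant proteins from E. coli or baculovirus-infected High Five cells.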

c-Met = target: T5, c-Met (Homo sapiens, UniProt P08581); experiment: Kinase inhibition assay (33P transfer), c-Met; details: Table 2, kinase inhibition class; read-out: Met-1
T5 construct: Kinases are expressed as either kinase domains or full length constructs; made in house
Procedure, shortened: as §1

Lck = target: T6, Lck (Homo sapiens, UniProt P06239); experiment: Kinase inhibition assay (33P transfer), Lck; details: Table 3; read-out: Lck-1
T6 construct: Kinases are expressed as either kinase domains or full length constructs; made in house
Procedure, shortened: as §2

ErbB4 = target: T7, ErbB4 (Homo sapiens, UniProt Q15303); experiment: Kinase inhibition assay (33P transfer), ErbB4; details: read-out: ErbB4-1
T7 construct: Kinases are expressed as either kinase domains or full length constructs; made in house

Lyn = target: T8, Lyn (Homo sapiens, UniProt P07948); experiment: Kinase inhibition assay (33P transfer), Lyn; details: Table 6, Lyn-1 kinase inhibition class
T8 construct: Kinases are expressed as either kinase domains or full length constructs; made in house
Source text: (§3) The inhibitor compounds described herein are screened in the following manner. Kinases suitable for use in the following protocol to determine kinase activity of the compounds described herein include, -but are not limited to: Lck, Lyn, Src, Fyn, Syk, Zap-70, Itk, Tec, Btk, EGFR, ErbB2, Kdr, Flt-1, Flt-3, Tek, c-Met, InsR, and AKT.
(§4) Kinases are expressed as either kinase domains or full length constructs fused to glutathione S-transferase (GST) or polyHistidine tagged fusion proteins in either E. colior Baculovirus-High Five expression systems. They are purified to near homogeneity by affinity chromatography essentially as previously described (Lehr et al., 1996; Gish et al., 1995). In some instances, kinases are co-expressed or mixed with purified or partially purified regulatory polypeptides prior to measurement of activity.
(§5) Kinase activity and inhibition are measured essentially by established protocols (Braunwalder et al., 1996). Briefly, The transfer of ^33PO4 from ATP to the synthetic substrates poly(Glu, Tyr) 4:1 or poly(Arg, Ser) 3:1 attached to the bioactive surface of microtiter plates serves as the basis to evaluate enzyme activity. After an incubation period, the amount of phosphate transferred is measured by first washing the plate with 0.5% phosphoric acid, adding liquid scintillant, and then counting in a liquid scintillation detector. The IC50 is determined by the concentration of compound that causes a 50% reduction in the amount of […] incorporated onto the substrate bound to the plate.

Zap-70 = target: T9, Zap-70 (Homo sapiens, UniProt P43403); experiment: Kinase inhibition assay (33P transfer), Zap-70; details: Table 3; read-out: Zap-1
T9 construct: Kinases are expressed as either kinase domains or full length constructs; made in house
T9 sequence (P43403 1-619): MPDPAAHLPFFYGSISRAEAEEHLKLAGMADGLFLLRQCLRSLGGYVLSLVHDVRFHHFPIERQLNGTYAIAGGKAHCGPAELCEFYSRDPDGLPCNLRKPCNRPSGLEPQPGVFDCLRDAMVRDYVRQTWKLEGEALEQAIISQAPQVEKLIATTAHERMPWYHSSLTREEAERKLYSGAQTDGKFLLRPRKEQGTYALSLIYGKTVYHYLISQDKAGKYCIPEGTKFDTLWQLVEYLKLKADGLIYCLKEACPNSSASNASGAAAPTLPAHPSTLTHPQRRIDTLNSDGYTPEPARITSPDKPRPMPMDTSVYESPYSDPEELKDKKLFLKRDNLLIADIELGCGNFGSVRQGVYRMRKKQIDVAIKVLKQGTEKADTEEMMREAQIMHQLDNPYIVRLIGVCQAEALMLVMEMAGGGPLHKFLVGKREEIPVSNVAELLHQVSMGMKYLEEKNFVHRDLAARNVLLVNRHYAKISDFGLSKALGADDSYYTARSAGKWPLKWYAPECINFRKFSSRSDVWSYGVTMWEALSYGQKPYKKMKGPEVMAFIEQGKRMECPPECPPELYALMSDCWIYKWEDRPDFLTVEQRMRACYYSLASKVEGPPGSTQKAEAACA
Procedure, shortened: as §2

Fyn = target: T10, Fyn (Homo sapiens, UniProt P06241); experiment: Kinase inhibition assay (33P transfer), Fyn; details: read-out: Fyn-1
T10 construct: Kinases are expressed as either kinase domains or full length constructs; made in house
Source text: as §3, §4, §5

PDGFRB = target: T11, PDGFRB (Homo sapiens, UniProt P09619); experiment: Kinase inhibition assay (33P transfer), PDGFRB; details: read-out: PDGFRB-1
T11 construct: Kinases are expressed as either kinase domains or full length constructs; made in house

Tek = target: T12, Tek (Homo sapiens, UniProt Q02763); experiment: Kinase inhibition assay (33P transfer), Tek; details: read-out: Tek-1
T12 construct: Kinases are expressed as either kinase domains or full length constructs; made in house
Procedure, shortened: as §1

EGFR = target: T13, EGFR (Homo sapiens, UniProt P00533); experiment: Kinase inhibition assay (33P transfer), EGFR; details: Table 2, kinase inhibition class; read-out: EGFR-1
T13 construct: Kinases are expressed as either kinase domains or full length constructs; made in house
Procedure, shortened: as §1

AKT = target: T14, AKT (Homo sapiens, UniProt Q9Y243); experiment: Kinase inhibition assay (33P transfer), AKT; details: Table 2, kinase inhibition class; read-out: AKT3-1
T14 construct: Kinases are expressed as either kinase domains or full length constructs; made in house
Procedure, shortened: as §2

Flt-1 = target: T15, Flt-1 (Homo sapiens, UniProt P17948); experiment: Kinase inhibition assay (33P transfer), Flt-1
T15 construct: Kinases are expressed as either kinase domains or full length constructs; made in house
Source text: as §3, §4, §5

Src = target: T16, Src (Homo sapiens, UniProt P12931); experiment: Kinase inhibition assay (33P transfer), Src; details: Table 6, Src-1 kinase inhibition class
T16 construct: Kinases are expressed as either kinase domains or full length constructs; made in house
Source text: as §3, §4, §5

T5 sequence (P08581 25-1390): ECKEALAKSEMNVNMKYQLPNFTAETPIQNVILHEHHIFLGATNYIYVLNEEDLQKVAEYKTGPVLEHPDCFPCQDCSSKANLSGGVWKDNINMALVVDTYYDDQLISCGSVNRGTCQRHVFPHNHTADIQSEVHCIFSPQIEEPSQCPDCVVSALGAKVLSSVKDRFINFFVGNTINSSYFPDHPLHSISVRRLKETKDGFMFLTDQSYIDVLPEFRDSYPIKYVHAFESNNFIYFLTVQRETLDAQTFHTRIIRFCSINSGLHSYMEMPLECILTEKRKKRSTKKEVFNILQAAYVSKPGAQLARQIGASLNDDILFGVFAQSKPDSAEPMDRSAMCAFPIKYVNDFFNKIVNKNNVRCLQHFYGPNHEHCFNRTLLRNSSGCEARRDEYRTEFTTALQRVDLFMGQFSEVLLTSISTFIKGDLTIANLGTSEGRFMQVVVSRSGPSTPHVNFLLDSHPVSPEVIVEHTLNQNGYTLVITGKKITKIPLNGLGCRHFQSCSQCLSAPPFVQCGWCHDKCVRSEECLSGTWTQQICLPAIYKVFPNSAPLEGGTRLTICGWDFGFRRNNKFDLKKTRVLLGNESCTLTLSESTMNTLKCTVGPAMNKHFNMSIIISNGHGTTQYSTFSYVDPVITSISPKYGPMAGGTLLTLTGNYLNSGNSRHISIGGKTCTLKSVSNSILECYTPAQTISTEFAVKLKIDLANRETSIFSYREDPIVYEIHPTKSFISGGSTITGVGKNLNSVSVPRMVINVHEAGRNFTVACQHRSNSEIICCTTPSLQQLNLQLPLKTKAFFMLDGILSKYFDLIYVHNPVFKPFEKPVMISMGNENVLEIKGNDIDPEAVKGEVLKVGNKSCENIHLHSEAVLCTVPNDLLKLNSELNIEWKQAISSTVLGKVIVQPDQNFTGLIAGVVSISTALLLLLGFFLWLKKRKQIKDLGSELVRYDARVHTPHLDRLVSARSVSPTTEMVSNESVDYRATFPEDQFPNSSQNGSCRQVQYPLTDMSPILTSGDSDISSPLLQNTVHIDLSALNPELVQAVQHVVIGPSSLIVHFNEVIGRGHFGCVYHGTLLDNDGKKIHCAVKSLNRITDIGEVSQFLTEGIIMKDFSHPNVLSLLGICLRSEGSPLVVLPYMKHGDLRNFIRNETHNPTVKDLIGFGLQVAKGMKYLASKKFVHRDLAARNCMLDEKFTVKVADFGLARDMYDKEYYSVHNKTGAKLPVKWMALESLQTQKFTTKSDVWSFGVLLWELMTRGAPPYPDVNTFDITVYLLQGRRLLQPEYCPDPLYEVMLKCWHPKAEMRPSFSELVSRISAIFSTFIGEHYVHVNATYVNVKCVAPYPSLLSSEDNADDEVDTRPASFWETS
T13 sequence (P00533 25-1210, species assumed): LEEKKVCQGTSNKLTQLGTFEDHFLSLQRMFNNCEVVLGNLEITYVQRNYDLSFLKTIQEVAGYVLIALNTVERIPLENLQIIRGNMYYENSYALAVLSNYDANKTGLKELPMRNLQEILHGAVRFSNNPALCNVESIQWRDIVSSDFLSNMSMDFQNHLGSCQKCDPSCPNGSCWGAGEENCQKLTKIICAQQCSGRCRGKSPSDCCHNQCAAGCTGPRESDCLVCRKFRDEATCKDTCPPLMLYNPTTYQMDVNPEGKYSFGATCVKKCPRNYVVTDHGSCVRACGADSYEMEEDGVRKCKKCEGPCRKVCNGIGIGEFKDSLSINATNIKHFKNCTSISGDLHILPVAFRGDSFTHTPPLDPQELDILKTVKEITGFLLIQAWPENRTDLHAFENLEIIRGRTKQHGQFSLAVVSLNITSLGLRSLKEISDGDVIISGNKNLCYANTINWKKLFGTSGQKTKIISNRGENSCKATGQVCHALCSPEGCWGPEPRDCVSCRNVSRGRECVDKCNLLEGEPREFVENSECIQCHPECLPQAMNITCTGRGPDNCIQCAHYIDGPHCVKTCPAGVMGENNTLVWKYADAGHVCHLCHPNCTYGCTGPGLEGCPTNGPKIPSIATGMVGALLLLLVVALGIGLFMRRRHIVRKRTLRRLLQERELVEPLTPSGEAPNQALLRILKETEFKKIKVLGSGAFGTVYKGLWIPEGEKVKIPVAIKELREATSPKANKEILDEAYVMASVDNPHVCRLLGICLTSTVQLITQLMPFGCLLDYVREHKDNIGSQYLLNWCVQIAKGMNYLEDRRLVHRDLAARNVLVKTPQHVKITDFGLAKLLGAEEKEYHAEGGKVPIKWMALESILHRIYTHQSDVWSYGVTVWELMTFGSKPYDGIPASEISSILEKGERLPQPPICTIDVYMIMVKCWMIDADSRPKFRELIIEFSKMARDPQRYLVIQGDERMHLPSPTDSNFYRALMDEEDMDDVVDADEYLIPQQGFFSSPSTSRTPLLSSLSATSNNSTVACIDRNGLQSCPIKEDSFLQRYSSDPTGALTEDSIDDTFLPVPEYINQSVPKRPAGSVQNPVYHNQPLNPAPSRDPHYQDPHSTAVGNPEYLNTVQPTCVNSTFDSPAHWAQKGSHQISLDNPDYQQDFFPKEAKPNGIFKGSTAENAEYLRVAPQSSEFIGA
T8 sequence (P07948 whole entry, species assumed, the tested form may be a part): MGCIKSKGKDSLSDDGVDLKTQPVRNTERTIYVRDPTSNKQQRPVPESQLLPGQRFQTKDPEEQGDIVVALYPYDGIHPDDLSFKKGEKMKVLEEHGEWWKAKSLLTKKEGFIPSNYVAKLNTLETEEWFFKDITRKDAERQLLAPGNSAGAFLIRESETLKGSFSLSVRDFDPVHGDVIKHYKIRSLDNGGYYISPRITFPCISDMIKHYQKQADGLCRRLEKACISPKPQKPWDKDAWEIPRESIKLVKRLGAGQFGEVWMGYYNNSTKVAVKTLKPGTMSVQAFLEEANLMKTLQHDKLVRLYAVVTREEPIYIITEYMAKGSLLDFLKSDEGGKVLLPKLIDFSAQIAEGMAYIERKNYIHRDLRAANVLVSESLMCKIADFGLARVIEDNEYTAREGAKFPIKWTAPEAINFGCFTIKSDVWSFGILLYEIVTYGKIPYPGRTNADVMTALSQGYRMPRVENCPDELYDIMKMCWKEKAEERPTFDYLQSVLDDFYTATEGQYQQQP
T10 sequence (P06241 whole entry, species assumed, the tested form may be a part): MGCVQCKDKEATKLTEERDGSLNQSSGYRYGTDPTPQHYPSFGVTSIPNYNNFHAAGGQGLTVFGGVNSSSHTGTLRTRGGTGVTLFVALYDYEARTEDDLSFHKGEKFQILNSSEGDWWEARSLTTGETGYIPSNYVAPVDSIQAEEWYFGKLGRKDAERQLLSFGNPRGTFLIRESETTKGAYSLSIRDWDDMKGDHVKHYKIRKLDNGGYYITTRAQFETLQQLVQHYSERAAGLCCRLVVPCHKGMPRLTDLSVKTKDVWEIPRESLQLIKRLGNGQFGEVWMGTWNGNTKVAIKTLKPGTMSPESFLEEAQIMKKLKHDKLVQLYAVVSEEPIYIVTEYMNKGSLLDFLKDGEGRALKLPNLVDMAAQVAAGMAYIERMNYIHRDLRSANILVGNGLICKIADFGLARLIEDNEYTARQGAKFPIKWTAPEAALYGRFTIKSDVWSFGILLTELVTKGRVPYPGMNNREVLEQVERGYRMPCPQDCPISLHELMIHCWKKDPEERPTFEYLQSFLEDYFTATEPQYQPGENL
T1 sequence (P08631 whole entry, the tested form may be a part): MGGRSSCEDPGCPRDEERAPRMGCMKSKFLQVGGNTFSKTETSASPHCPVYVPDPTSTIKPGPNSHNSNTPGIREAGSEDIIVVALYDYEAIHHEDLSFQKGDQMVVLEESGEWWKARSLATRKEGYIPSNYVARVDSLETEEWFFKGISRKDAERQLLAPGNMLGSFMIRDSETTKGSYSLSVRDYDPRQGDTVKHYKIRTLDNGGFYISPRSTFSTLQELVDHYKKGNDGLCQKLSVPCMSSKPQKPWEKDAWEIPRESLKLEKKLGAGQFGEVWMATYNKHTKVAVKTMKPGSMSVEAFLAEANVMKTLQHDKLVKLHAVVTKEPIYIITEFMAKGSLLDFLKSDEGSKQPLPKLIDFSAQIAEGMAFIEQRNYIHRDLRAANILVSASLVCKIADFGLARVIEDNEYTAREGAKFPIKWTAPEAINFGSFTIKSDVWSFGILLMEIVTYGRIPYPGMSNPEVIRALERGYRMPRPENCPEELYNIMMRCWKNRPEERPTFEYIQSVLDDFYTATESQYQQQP
T14 sequence (Q9Y243 whole entry, the tested form may be a part): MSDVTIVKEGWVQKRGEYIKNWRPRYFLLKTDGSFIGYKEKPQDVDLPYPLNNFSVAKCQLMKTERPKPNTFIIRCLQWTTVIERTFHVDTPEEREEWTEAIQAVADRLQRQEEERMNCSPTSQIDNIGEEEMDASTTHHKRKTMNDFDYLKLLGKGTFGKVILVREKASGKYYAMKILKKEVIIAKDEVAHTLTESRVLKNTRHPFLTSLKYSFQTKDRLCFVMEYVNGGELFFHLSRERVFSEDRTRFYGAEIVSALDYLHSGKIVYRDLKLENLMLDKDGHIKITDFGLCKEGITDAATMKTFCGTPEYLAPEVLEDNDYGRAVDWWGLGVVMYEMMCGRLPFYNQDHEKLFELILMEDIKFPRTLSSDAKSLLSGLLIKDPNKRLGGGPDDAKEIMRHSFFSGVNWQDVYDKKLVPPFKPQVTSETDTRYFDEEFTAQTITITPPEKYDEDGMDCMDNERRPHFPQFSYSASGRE

IC50 (Hck-1) [µM]	IC50 (Itk) [µM]	IC50 (FGFR1) [nM]	IC50 (Kdr) [nM]	IC50 (c-Met) [µM]	IC50 (Lck) [µM]	IC50 (ErbB4) [µM]	IC50 (Lyn) [nM]	IC50 (Zap-70) [µM]	IC50 (Fyn) [µM]	IC50 (PDGFRB) [nM]	IC50 (Tek) [µM]	IC50 (EGFR) [µM]	IC50 (AKT) [µM]	IC50 (Flt-1) [nM]	IC50 (Src) [µM]	Compound
> 11.4	> 11.4	> 11400	< 1010	> 11.4	6.07 to 8.85	> 11.4	> 11400	> 11.4	1.01 to 6.07	< 1010	> 11.4	> 11.4	> 11.4	1010 to 6070	> 11.4	COc1cc(Nc2ncnc(-n3ccc4cc(F)ccc43)n2)cc(OC)c1OC [Compound 441]
1.08 to 6.48	1.08 to 6.48	< 1080	< 1080	1.08 to 6.48	1.08 to 6.48	1.08 to 6.48	1080 to 6480	6.48 to 9.45	1.08 to 6.48	< 1080	1.08 to 6.48	1.08 to 6.48	1.08 to 6.48	< 1080	1.08 to 6.48	Nc1nc2ccccc2n1-c1ncnc(Nc2cccc(-c3cnco3)c2)n1 [Compound 439]
> 11.5	1.02 to 6.15	1020 to 6150	< 1020	1.02 to 6.15	> 11.5	1.02 to 6.15	1020 to 6150	> 11.5	6.15 to 8.97	1020 to 6150	> 11.5	1.02 to 6.15	> 11.5	1020 to 6150	6.15 to 8.97	CC(=O)NCc1ccc(Nc2ncnc(Nc3cc(-c4ccco4)n[nH]3)n2)cc1 [Compound 443]

Further lines, the compound ahead of its results:

Compound	IC50 (Hck-1) [µM]	IC50 (Itk) [µM]	IC50 (FGFR1) [nM]	IC50 (Kdr) [nM]	IC50 (c-Met) [µM]	IC50 (Lck) [µM]	IC50 (ErbB4) [µM]	IC50 (Lyn) [nM]	IC50 (Zap-70) [µM]	IC50 (Fyn) [µM]	IC50 (PDGFRB) [nM]	IC50 (Tek) [µM]	IC50 (EGFR) [µM]	IC50 (AKT) [µM]	IC50 (Flt-1) [nM]	IC50 (Src) [µM]
OCc1cccc(Nc2ncnc(Nc3cc(-c4ccco4)n[nH]3)n2)c1 [Compound 429]	> 12.9	1.14 to 6.87	< 1140	< 1140	< 1.14	1.14 to 6.87	1.14 to 6.87	< 1140	> 12.9	1.14 to 6.87	< 1140	10 to 12.9	1.14 to 6.87	1.14 to 6.87	< 1140	< 1.14
COc1cc(Nc2ncnc(-n3c(NCc4cccnc4)nc4ccccc43)n2)cc(OC)c1OC [Compound 416]	> 9.29	> 9.29	< 826	< 826	> 9.29	0.826 to 4.95	> 9.29	826 to 4950	> 9.29	7.22 to 9.29	< 826	> 9.29	> 9.29	> 9.29	826 to 4950	4.95 to 7.22
COc1cc(Nc2ncnc(-n3c(NCc4ccncc4)nc4ccccc43)n2)cc(OC)c1OC [Compound 413]	> 9.29	> 9.29	< 826	< 826	> 9.29	> 9.29	> 9.29	826 to 4950	> 9.29	0.826 to 4.95	< 826	> 9.29	> 9.29	> 9.29	826 to 4950	0.826 to 4.95
COc1cc(Nc2ncnc(-n3c(Nc4ccc5cn[nH]c5c4)nc4ccccc43)n2)cc(OC)c1OC [Compound 406]	> 8.83	> 8.83	< 785	785 to 4710	> 8.83	0.785 to 4.71	> 8.83	785 to 4710	> 8.83	0.785 to 4.71	785 to 4710	> 8.83	> 8.83	> 8.83	4710 to 6870	> 8.83
